From patent US10927123B2, “Modulators of the beta-3 adrenergic receptor useful for the treatment or prevention of disorders related thereto” (Arena Pharmaceuticals, Inc., priority 2016, dated 2021)

These compounds were tested against Beta-3 Adrenergic Receptor (Homo sapiens (Human), UniProt P13945) (assay: HTRF cAMP antagonist assay (IC50 determination)). Conditions: CHO-K1 cells stably expressing recombinant receptor; antagonism of isoproterenol at EC90; cAMP readout.
Type: cell-based
In short: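 CHO-K1 cells stably expressing the recombinant receptor were preincubated with compound (10-point, 5-fold dilutions; top final typically 10 or 100 μM) in PBS with 1 mM IBMX, then stimulated with isoproterenol at its EC90 for 1 h at room temperature. cAMP was read by HTRF against an on-plate standard curve.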

Sequence of Beta-3 Adrenergic Receptor (P13945 whole entry, species assumed): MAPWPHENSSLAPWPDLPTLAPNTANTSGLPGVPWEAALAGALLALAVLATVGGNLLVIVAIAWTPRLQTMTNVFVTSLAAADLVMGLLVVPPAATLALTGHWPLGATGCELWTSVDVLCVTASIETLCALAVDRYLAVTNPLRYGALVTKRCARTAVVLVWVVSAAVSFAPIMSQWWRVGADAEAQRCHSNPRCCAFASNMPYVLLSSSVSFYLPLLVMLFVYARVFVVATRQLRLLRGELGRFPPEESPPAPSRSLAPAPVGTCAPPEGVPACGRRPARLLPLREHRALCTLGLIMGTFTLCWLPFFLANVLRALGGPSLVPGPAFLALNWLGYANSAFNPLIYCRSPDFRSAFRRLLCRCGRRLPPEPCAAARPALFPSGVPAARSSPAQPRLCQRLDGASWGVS

Row | Structure (SMILES) | IC50
1 | CS(=O)(=O)Cc1cccc(OC[C@@H](O)CNC2COC3(CCN(S(=O)(=O)c4ccc5ccccc5c4)CC3)C2)c1 (stereo partly drawn) [Compound 335, (2S)-1-(3-(methylsulfonylmethyl)phenoxy)-3-(8-(naphthalen-2-ylsulfonyl)-1-oxa-8-azaspiro[4.5]decan-3-ylamino)propan-2-ol] | 14.4 nM
2 | CS(=O)(=O)c1cccc(OC[C@@H](O)CNC2COC3(CCN(S(=O)(=O)c4ccccn4)CC3)C2)c1 (stereo partly drawn) [Compound 72, (2S)-1-(3-(methylsulfonyl)phenoxy)-3-(8-(pyridin-2-ylsulfonyl)-1-oxa-8-azaspiro[4.5]decan-3-ylamino)propan-2-ol] | 329 nM
3 | CCC(C)(C)NCc1ccc(-c2cccc(S(=O)(=O)N3CCC4(CC3)C[C@@H](NC[C@H](O)COc3cccc(S(=O)(=O)C5(CO)CC5)c3)CO4)c2)cc1 [Compound 263, (S)-1-(3-(1-(hydroxymethyl)cyclopropylsulfonyl)phenoxy)-3-((R)-8-(4′-((tert-pentylamino)methyl)biphenyl-3-ylsulfonyl)-1-oxa-8-azaspiro[4.5]decan-3-ylamino)propan-2-ol] | 755 nM
4 | NC(=O)CCS(=O)(=O)c1cccc(OC[C@@H](O)CN[C@H]2COC3(CCN(S(=O)(=O)c4ccc5ncccc5c4)CC3)C2)c1 [Compound 133, 3-(3-((S)-2-hydroxy-3-((R)-8-(quinolin-6-ylsulfonyl)-1-oxa-8-azaspiro[4.5]decan-3-ylamino)propoxy)phenylsulfonyl)propanamide] | 443 nM
5 | CS(=O)(=O)c1cccc(OC[C@@H](O)CNC2COC3(CCN(S(=O)(=O)c4ccc5c(c4)CCO5)CC3)C2)c1 (stereo partly drawn) [Compound 74, (2S)-1-(8-(2,3-dihydrobenzofuran-5-ylsulfonyl)-1-oxa-8-azaspiro[4.5]decan-3-ylamino)-3-(3-(methylsulfonyl)phenoxy)propan-2-ol] | 38 nM
6 | NCCc1ccc(-c2cccc(S(=O)(=O)N3CCC4(CC3)C[C@@H](NC[C@H](O)COc3cccc(S(=O)(=O)C(F)(F)CO)c3)CO4)c2)cc1 [Compound 213, (S)-1-((R)-8-(4′-(2-aminoethyl)biphenyl-3-ylsulfonyl)-1-oxa-8-azaspiro[4.5]decan-3-ylamino)-3-(3-(1,1-difluoro-2-hydroxyethylsulfonyl)phenoxy)propan-2-ol] | 18.6 nM
7 | CCS(=O)(=O)c1cccc(OC[C@@H](O)CN[C@@H]2COC3(CCN(S(=O)(=O)c4ccc5ccccc5c4)CC3)C2)c1 [Compound 27, (S)-1-(3-(ethylsulfonyl)phenoxy)-3-((S)-8-(naphthalen-2-ylsulfonyl)-1-oxa-8-azaspiro[4.5]decan-3-ylamino)propan-2-ol] | 19.3 nM
8 | CCNCc1ccc(-c2cccc(S(=O)(=O)N3CCC4(CC3)C[C@@H](NC[C@H](O)COc3cccc(S(=O)(=O)C5(CO)CC5)c3)CO4)c2)cc1 [Compound 268, (S)-1-((R)-8-(4′-((ethylamino)methyl)biphenyl-3-ylsulfonyl)-1-oxa-8-azaspiro[4.5]decan-3-ylamino)-3-(3-(1-(hydroxymethyl)cyclopropylsulfonyl)phenoxy)propan-2-ol] | 138 nM
9 | CCn1cc(S(=O)(=O)N2CCC3(CC2)C[C@@H](NC[C@H](O)COc2cccc(S(C)(=O)=O)c2)CO3)c(=O)c2cccc(F)c21 [Compound 322, 1-ethyl-8-fluoro-3-((R)-3-((S)-2-hydroxy-3-(3-(methylsulfonyl)phenoxy)propylamino)-1-oxa-8-azaspiro[4.5]decan-8-ylsulfonyl)quinolin-4(1H)-one] | 21.8 nM
10 | O=S(=O)(CCO)c1cccc(OC[C@@H](O)CN[C@H]2COC3(CCN(S(=O)(=O)c4cccc5cnccc45)CC3)C2)c1 [Compound 105, (S)-1-(3-(2-hydroxyethylsulfonyl)phenoxy)-3-((R)-8-(isoquinolin-5-ylsulfonyl)-1-oxa-8-azaspiro[4.5]decan-3-ylamino)propan-2-ol] | 277 nM
11 | CCOc1c(S(=O)(=O)N2CCC3(CC2)C[C@@H](NC[C@H](O)COc2cccc(S(=O)(=O)C4(CO)CC4)c2)CO3)ccc2ccccc12 [Compound 301, (S)-1-((R)-8-(1-ethoxynaphthalen-2-ylsulfonyl)-1-oxa-8-azaspiro[4.5]decan-3-ylamino)-3-(3-(1-(hydroxymethyl)cyclopropylsulfonyl)phenoxy)propan-2-ol] | 357 nM
12 | O=S(=O)(CCO)c1cc(F)cc(OC[C@@H](O)CN[C@H]2COC3(CCN(S(=O)(=O)c4ccc5ncccc5c4)CC3)C2)c1 [Compound 249, (S)-1-(3-fluoro-5-(2-hydroxyethylsulfonyl)phenoxy)-3-((R)-8-(quinolin-6-ylsulfonyl)-1-oxa-8-azaspiro[4.5]decan-3-ylamino)propan-2-ol] | 224 nM
13 | O=S(=O)(c1cccc(OC[C@@H](O)CNC2COC3(CCN(S(=O)(=O)c4ccc5ccccc5c4)CC3)C2)c1)C1COC1 (stereo partly drawn) [Compound 24, (2S)-1-(8-(naphthalen-2-ylsulfonyl)-1-oxa-8-azaspiro[4.5]decan-3-ylamino)-3-(3-(oxetan-3-ylsulfonyl)phenoxy)propan-2-ol] | 23.6 nM
14 | Cn1cnc2cc(S(=O)(=O)N3CCC4(CC3)C[C@@H](NC[C@H](O)COc3cccc(S(=O)(=O)C5CC5)c3)CO4)cnc21 [Compound 279, (S)-1-(3-(cyclopropylsulfonyl)phenoxy)-3-((R)-8-(3-methyl-3H-imidazo[4,5-b]pyridin-6-ylsulfonyl)-1-oxa-8-azaspiro[4.5]decan-3-ylamino)propan-2-ol] | 39.7 nM
15 | CS(=O)(=O)c1cccc(OC[C@@H](O)CN[C@H]2COC3(CCN(S(=O)(=O)c4cnc5cc[nH]c5c4)CC3)C2)c1 [Compound 320, (S)-1-((R)-8-(1H-pyrrolo[3,2-b]pyridin-6-ylsulfonyl)-1-oxa-8-azaspiro[4.5]decan-3-ylamino)-3-(3-(methylsulfonyl)phenoxy)propan-2-ol] | 11.2 nM
16 | CS(=O)(=O)c1cccc(OC[C@@H](O)CNC2COC3(CCN(S(=O)(=O)c4cccc(Cl)c4)CC3)C2)c1 (stereo partly drawn) [Compound 31, (2S)-1-(8-(3-chlorophenylsulfonyl)-1-oxa-8-azaspiro[4.5]decan-3-ylamino)-3-(3-(methylsulfonyl)phenoxy)propan-2-ol] | 49.3 nM
17 | CS(=O)(=O)c1cccc(OC[C@@H](O)CNC2COC3(CCN(C(=O)c4ccc5[nH]ccc5c4)CC3)C2)c1 (stereo partly drawn) [Compound 67, (3-((S)-2-hydroxy-3-(3-(methylsulfonyl)phenoxy)propylamino)-1-oxa-8-azaspiro[4.5]decan-8-yl)(1H-indol-5-yl)methanone] | 822 nM
18 | COCCNCc1ccc(-c2cccc(S(=O)(=O)N3CCC4(CC3)C[C@@H](NC[C@H](O)COc3cccc(S(=O)(=O)C5(CO)CC5)c3)CO4)c2)cc1 [Compound 267, (S)-1-(3-(1-(hydroxymethyl)cyclopropylsulfonyl)phenoxy)-3-((R)-8-(4′-((2-methoxyethylamino)methyl)biphenyl-3-ylsulfonyl)-1-oxa-8-azaspiro[4.5]decan-3-ylamino)propan-2-ol] | 442 nM
19 | CS(=O)(=O)c1cccc(OC[C@@H](O)CNC2COC3(CCN(S(=O)(=O)c4ccc5[nH]ncc5c4)CC3)C2)c1 (stereo partly shown) [Compound 77, (2,5)-1-(8-(1H-indazol-5-ylsulfonyl)-1-oxa-8-azaspiro[4.5]decan-3-ylamino)-3-(3-(methylsulfonyl)phenoxy)propan-2-ol] | 35.1 nM
